# Measured values from patent publication US11420947B2, “(S)-n-hydroxy-2-(2-(4-methoxyphenyl)butanamido)thiazole-5-carboxamide and pharmaceutically acceptable salts thereof” (TRANSLATIONAL DRUG DEVELOPMENT, LLC, priority 2018, dated 2022).
# Assays:
# [1] = target: T1, HDAC10 (Homo sapiens, UniProt Q969S8); assay: Inhibition of HDAC enzymes, 12-point concentration-response; type: biochemical; details: for IC50: HDAC10
# T1 construct: made in house
# T1 sequence (Q969S8 1-669): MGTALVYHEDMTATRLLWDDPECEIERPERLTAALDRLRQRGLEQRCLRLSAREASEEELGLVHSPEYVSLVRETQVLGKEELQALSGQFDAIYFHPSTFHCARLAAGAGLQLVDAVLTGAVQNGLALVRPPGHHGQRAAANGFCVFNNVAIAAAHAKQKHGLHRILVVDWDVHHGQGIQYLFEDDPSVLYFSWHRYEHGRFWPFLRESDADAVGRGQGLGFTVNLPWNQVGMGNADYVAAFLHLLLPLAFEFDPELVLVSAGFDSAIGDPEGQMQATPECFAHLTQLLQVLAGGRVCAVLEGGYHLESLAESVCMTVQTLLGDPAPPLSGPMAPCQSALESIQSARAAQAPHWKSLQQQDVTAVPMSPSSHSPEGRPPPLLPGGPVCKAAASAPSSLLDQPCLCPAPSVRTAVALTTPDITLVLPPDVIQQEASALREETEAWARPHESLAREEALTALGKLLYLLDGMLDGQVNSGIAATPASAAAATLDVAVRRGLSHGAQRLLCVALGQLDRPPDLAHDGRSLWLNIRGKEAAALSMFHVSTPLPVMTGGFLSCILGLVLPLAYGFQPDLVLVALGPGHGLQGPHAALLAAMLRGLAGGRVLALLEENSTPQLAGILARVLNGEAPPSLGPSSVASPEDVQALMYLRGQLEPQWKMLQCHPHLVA
# Procedure: (§1) Compounds were tested in a 12-point concentration-response format against 11 HDAC enzymes as outlined in Table 2A. Test compounds were diluted in 100% DMSO using 3-fold dilution steps. The final compound concentration in the assay ranged from 100 μM to 0.565 nM or as requested. Compounds were tested in a single well for each dilution, and the final concentration of DMSO in all assays was kept at 1%. Reference compounds were tested in an identical manner.
# [2] = target: T2, HDAC2 (Homo sapiens, UniProt Q92769); assay: as above; type: biochemical
# T2 construct: purchased BPS 50002
# Procedure: as §1
# [3] = target: T3, HDAC3 (Homo sapiens, UniProt O15379); assay: as above; type: biochemical; details: for IC50: HDAC3
# T3 construct: purchased BPS 50003
# Procedure: as §1
# [4] = target: T4, HDAC4 (Homo sapiens, UniProt P56524); assay: as above; type: biochemical
# T4 construct: made in house
# Procedure: as §1
# [5] = target: T5, HDAC7 (Homo sapiens, UniProt Q8WUI4); assay: as above; type: biochemical
# T5 construct: made in house
# Procedure: as §1
# [6] = target: T6, HDAC8 (Homo sapiens, UniProt Q9BY41); assay: as above; type: biochemical
# T6 construct: purchased BPS 50008
# Procedure: as §1
# [7] = Tumor uptake and retention (FIG. 2); type: in vivo
# Excerpt: Volume of distribution is one of the most important pharmacokinetic properties of a drug candidate and for an anticancer drug can result in increased drug distribution to the tumor.
# [8] = target: T7, HDAC6 (Homo sapiens, UniProt Q9UBN7); assay: Determination of Koff kinetics against HDAC6 protein; type: biochemical; details: for residence time: 100 nM HDAC6 pre-incubated with 0.120 μM compound for 3 hr, diluted 200×, Ln(2)/Kobs, read-out: residence time for binding to HDAC6
# T7 sequence (Q9UBN7 1-1215): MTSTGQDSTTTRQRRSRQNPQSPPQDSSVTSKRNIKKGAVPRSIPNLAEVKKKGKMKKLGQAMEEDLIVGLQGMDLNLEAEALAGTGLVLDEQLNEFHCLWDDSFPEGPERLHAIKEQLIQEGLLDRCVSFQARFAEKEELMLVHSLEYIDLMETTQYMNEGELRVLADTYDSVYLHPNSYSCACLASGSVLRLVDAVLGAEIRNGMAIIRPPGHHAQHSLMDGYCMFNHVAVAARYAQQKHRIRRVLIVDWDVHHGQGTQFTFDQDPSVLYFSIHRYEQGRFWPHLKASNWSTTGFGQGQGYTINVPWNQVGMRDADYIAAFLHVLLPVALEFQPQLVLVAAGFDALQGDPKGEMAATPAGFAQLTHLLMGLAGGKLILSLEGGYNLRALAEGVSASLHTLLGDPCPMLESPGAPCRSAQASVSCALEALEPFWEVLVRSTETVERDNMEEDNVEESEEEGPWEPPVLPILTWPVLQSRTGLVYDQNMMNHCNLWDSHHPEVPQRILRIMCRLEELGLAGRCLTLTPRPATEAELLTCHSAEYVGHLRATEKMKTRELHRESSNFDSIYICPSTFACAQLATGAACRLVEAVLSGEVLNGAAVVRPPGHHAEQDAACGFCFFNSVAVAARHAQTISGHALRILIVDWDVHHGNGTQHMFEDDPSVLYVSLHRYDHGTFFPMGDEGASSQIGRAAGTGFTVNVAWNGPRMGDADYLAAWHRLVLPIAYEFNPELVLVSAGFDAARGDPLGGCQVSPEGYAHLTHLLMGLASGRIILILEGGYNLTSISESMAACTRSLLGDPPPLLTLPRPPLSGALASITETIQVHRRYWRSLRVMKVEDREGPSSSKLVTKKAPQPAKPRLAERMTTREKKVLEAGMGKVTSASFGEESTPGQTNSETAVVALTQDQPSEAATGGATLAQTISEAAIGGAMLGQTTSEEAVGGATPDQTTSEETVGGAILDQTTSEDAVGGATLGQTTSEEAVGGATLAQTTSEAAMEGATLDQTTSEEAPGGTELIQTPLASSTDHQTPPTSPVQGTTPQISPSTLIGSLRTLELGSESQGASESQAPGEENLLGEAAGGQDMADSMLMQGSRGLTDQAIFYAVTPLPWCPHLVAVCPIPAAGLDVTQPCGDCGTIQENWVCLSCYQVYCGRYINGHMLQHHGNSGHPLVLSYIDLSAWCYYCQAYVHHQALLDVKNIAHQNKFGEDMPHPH
# Procedure: The disassociation rate for #1a (FIG. 3) or #1b (FIG. 4) was determined by pre-incubating 100 nM HDAC6 protein with 0.120 μM compound #1a, #1b, or DMSO for 3 hr. After pre-incubation, the compound-enzyme complex was diluted (200×) into an assay buffer with substrate peptide. Progress curves for ˜8 hrs were observed using Labchip3000 instrument. Progress curve after pre-incubation with compound (blue) was fit with following equation: ((A+(Vs*x))+(((Vo−Vs)*(1−exp(((−1)*Kobs)*t)))/Kobs)), to determine observed rate of dissociation. Residence time was determined as Ln(2)/Kobs.
# [9] = target: T7, HDAC6; assay: Inhibition of HDAC enzymes, 12-point concentration-response; type: biochemical; set-up: made in house; details: for IC50: HDAC6
# Procedure: as §1
# T3 sequence (O15379 whole entry): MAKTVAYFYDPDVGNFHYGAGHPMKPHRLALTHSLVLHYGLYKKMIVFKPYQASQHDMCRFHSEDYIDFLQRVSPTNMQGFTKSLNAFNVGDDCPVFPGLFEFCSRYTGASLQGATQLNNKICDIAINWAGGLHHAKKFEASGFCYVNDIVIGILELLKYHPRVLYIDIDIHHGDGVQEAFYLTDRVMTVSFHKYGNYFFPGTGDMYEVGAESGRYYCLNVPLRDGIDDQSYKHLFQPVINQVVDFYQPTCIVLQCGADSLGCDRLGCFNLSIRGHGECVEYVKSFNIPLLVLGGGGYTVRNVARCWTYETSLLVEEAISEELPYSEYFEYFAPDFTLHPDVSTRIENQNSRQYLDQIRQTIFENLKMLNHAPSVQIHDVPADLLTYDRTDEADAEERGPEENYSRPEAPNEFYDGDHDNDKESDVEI
# T3 sequence (Q9Y618 395-489 partner limits assumed): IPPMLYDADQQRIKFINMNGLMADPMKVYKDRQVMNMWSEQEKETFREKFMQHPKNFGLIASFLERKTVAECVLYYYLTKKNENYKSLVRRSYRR
# T5 sequence (Q8WUI4 whole entry): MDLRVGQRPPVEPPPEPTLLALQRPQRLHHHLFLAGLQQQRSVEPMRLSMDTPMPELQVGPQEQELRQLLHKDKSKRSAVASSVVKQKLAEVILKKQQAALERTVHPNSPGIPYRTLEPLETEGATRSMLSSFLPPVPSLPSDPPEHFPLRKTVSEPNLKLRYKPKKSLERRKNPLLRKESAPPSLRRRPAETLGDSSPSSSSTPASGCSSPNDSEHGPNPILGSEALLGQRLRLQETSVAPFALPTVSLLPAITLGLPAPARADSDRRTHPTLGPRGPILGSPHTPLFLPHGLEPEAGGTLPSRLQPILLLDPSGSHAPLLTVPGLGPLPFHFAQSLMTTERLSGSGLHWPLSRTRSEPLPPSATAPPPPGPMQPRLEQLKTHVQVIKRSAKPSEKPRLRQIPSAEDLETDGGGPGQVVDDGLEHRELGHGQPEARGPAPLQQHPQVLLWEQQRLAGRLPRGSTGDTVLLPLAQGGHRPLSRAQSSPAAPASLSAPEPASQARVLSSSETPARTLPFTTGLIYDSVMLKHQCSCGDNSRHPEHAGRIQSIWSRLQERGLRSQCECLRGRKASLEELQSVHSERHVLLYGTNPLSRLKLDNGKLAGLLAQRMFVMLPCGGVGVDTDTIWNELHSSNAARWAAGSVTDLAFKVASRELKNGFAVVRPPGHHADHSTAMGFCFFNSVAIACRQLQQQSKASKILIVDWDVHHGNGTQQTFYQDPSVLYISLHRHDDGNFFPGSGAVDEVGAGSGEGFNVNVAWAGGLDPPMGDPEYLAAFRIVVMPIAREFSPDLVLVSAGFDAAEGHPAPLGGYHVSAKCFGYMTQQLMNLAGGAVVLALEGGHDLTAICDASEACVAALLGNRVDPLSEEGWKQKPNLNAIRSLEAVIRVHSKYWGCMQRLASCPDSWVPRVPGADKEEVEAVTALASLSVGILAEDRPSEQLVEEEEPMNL
# T4 sequence (P56524 whole entry, species assumed): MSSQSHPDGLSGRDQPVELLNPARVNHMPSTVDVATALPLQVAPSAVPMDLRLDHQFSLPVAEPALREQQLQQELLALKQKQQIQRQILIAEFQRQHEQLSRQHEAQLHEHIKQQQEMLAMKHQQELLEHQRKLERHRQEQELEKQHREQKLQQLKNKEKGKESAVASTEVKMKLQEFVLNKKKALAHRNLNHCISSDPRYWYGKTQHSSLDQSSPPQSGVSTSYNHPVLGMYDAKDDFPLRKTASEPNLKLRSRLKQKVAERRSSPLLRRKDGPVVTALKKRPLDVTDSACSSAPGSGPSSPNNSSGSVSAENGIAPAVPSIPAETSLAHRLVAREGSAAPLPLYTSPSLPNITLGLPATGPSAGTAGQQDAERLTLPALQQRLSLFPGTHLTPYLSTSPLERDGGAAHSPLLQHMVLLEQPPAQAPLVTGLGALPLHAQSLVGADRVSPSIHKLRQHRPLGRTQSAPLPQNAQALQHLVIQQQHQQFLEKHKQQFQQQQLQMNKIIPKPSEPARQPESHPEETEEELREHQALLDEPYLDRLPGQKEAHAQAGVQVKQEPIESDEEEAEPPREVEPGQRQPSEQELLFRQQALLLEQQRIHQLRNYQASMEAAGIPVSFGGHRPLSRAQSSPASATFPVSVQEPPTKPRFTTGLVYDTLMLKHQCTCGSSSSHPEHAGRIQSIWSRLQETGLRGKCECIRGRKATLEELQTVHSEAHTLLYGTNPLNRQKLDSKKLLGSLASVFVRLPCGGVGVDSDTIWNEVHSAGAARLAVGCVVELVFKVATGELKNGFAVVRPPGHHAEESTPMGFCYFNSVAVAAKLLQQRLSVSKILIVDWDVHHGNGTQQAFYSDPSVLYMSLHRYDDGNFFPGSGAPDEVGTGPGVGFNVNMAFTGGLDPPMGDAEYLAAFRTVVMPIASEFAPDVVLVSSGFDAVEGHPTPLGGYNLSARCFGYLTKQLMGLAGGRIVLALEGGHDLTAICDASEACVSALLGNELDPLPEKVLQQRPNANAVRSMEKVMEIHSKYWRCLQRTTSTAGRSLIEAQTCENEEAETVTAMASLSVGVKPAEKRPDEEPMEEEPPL
# T6 sequence (Q9BY41 whole entry): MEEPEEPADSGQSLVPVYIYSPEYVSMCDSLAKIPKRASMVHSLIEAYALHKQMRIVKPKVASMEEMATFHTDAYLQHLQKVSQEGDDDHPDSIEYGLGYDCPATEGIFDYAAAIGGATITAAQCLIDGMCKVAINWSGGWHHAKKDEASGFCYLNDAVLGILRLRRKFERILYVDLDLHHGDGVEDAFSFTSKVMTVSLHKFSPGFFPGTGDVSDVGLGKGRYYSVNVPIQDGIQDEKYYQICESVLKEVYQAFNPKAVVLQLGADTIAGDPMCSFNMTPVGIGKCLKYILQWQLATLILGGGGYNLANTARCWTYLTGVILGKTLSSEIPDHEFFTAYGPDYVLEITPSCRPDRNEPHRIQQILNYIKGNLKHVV
# T2 sequence (Q92769 whole entry): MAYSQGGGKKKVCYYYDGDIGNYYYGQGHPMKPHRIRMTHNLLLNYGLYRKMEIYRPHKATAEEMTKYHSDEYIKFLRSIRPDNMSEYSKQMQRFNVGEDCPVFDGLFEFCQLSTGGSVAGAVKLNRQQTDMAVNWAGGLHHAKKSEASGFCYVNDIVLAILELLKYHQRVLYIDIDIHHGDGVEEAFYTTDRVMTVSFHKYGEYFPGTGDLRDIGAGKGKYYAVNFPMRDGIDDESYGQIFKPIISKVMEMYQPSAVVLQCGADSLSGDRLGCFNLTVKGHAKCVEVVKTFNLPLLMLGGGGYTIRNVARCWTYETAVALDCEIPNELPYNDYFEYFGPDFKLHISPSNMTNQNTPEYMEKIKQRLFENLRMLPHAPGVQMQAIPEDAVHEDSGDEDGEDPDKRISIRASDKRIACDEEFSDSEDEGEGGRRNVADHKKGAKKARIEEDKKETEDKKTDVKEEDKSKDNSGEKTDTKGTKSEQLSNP
SMILES,IC50 [1] [nM],"Fold (1b/1a) ([1]; ratio of IC50, HDAC10)","Fold (1b/1a) ([2]; ratio of IC50, HDAC2)",IC50 [3] [nM],"Fold (1b/1a) ([3]; ratio of IC50, HDAC3)","Fold (1b/1a) ([4]; ratio of IC50, HDAC4)","Fold (1b/1a) ([5]; ratio of IC50, HDAC7)","Fold (1b/1a) ([6]; ratio of IC50, HDAC8)",tumor uptake and retention [7],residence time [8] [min],binding to HDAC6 (in words) ([8]; HDAC6),increase in residence time compared to #1b ([8]; HDAC6) [fold],IC50 [9] [nM],"Fold (1b/1a) ([9]; ratio of IC50, HDAC6)",IC50 ([2]; HDAC2) [nM],IC50 ([4]; HDAC4) [nM],IC50 ([5]; HDAC7) [nM],IC50 ([6]; HDAC8) [nM]
"CC[C@H](C(=O)Nc1ncc(C(=O)NO)s1)c1ccc(OC)cc1 [#1a, (S)—N-hydroxy-2-(2-(4-methoxyphenyl)butanamido)thiazole-5-carboxamide]",2,7.3,6.9,< 0.56,4.6,1.2,3.4,3.1,preferential and significant tumor uptake and retention,1920,very tightly bound inhibitor of HDAC6,55,0.71,1.5,–,–,–,–
"CC[C@@H](C(=O)Nc1ncc(C(=O)NO)s1)c1ccc(OC)cc1 [#1b, (R)—N-hydroxy-2-(2-(4-methoxyphenyl)butanamido)thiazole-5-carboxamide]",14.6,–,–,2.6,–,–,–,–,–,35,–,–,1.1,–,36.5,160,118,416
